Read-outs that look alike come from different tables or passages of the source.
Legend:
HCT116 WT cells = experiment: HCT116 proliferation assay, WT cells (CellTiter-Glo, 6 days); format: cell-based; settings: Homo sapiens, HCT-116, 144 h, read-out: Prolif_HCT116-WT IC50
Procedure, shortened: (§1)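 Compound titrations (top dose 1 or 10 µM, 1:3 dilution, 8 or 9 concentrations) and a DMSO control were applied to cells cultured overnight beforehand in RPMI 1640 with 10% FBS at 37° C, 5% CO2; viability was scored from luminescence.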

PRMT5/MEP50 = PRMT5/MEP50 (Homo sapiens, UniProt O14744); experiment: MTase-Glo methyl transferase assay, Method A (Histone H4 peptide, 1 µM MTA, 24 h pre-incubation); format: biochemical; design: made in house; settings: read-out: PRMT5 MTase Glo Ki (nM, Meth. A)
Procedure, shortened: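 Luminescent SAH detection (MTase-Glo) after a 2 h room-temperature methylation of 1 µM biotinylated H4 (1-21) peptide by 10 nM PRMT5/MEP50 with 5 µM SAM, in 50 mM Tris pH 8.0.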

HCT116 MTAP null cells = experiment: HCT116 proliferation assay, MTAP null cells (CellTiter-Glo, 6 days); format: cell-based; settings: 144 h, read-out: Protif_ HCT116-MTAP null IC50
Procedure, shortened: as §1

Sequence of PRMT5/MEP50 (O14744 whole entry): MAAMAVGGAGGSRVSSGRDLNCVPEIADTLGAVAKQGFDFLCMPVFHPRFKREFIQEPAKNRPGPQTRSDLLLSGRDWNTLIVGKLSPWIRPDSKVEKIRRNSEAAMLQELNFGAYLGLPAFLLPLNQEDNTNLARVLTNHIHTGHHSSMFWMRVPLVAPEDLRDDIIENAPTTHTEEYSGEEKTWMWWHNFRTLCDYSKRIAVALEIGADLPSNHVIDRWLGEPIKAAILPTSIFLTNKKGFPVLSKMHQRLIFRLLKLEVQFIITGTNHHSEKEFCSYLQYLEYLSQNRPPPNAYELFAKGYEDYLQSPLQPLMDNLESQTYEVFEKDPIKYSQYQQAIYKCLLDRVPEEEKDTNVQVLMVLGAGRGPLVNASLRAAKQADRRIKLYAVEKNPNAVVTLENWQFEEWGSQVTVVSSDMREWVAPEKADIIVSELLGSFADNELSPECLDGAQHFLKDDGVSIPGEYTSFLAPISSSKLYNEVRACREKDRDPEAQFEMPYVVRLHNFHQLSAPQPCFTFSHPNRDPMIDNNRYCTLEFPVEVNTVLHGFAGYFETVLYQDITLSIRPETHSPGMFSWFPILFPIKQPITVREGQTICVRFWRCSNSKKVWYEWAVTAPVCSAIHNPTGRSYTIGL
Sequence of PRMT5/MEP50 (Q9BQA1 whole entry partner): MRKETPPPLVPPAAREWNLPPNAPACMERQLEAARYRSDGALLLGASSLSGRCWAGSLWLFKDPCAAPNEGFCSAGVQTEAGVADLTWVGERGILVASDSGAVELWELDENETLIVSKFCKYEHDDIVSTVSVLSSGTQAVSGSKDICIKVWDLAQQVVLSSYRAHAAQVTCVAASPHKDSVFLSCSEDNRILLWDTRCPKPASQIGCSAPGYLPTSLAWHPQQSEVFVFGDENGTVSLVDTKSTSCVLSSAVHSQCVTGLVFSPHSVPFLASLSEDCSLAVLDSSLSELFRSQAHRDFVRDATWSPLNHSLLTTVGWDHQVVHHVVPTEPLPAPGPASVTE

Row | IC50 (HCT116 WT cells) [nM] | Ki (PRMT5/MEP50) [nM] | IC50 (HCT116 MTAP null cells; HCT116-MTAP null) [nM] | SMILES | IC50 (HCT116 MTAP null cells) [nM]
1 | 600 | 0.01 | 32 | Cc1cc2cc(C(=O)N(Cc3ccc(C(F)(F)F)cn3)Cc3ncccc3Cl)ccc2nc1N [Example 303, 2-amino-N-((3-chloro-2-pyridinyl)methyl)-3-methyl-N-((5-(trifluoromethyl)-2-pyridinyl)methyl)-6-quinolinecarboxamide] | 
2 | 4100 | 0.11 | 182 | Cc1cc2cc(C(=O)N(Cc3ccc(C(F)(F)F)cn3)Cc3ncc(Cl)cc3F)ccc2nc1N [Example 304, 2-amino-N-((5-chloro-3-fluoro-2-pyridinyl)methyl)-3-methyl-N-((5-(trifluoromethyl)-2-pyridinyl)methyl)-6-quinolinecarboxamide] | 
3 | 8770 | 15.1 | 268 | Cc1cc2cc(C(=O)N(Cc3ccc(C(F)(F)F)cn3)Cc3cnc(N)s3)ccc2nc1N [Example 305, 2-amino-N-((2-amino-1,3-thiazol-5-yl)methyl)-3-methyl-N-((5-(trifluoromethyl)-2-pyridinyl)methyl)-6-quinolinecarboxamide] | 
4 | > 10000 | 0.76 | 401 | Cc1cc2cc(C(=O)N(Cc3ccc(C(F)(F)F)cn3)Cc3ncn(C)n3)ccc2nc1N [Example 306, 2-amino-3-methyl-N-((1-methyl-1H-1,2,4-triazol-3-yl)methyl)-N-((5-(trifluoromethyl)-2-pyridinyl)methyl)-6-quinolinecarboxamide] | 
5 | 7660 | 1.88 | 349 | Cc1cc2cc(C(=O)N(Cc3ccc(C#N)cn3)CC3CC3)c(F)cc2nc1N [Example 307, 2-amino-N-((5-cyano-2-pyridinyl)methyl)-N-(cyclopropylmethyl)-7-fluoro-3-methyl-6-quinolinecarboxamide] | 
6 | > 10000 | 2.34 | 620 | Cc1cc2cc(C(=O)N(Cc3ncc(C(F)(F)F)cc3F)CC(C)C)ccc2nc1N [Example 308, 2-amino-N-((3-fluoro-5-(trifluoromethyl)-2-pyridinyl)methyl)-3-methyl-N-(2-methylpropyl)-6-quinolinecarboxamide] | 
7 | 7440 | 2.35 | 644 | Cc1cc2cc(C(=O)N(Cc3ccc(C(F)(F)F)cn3)[C@H](C)C3CC3)ccc2nc1N [Example 309, 2-amino-N-((1R)-1-cyclopropylethyl)-3-methyl-N-((5-(trifluoromethyl)-2-pyridinyl)methyl)-6-quinolinecarboxamide] | 
8 | 1600 | 0.29 | 67 | Cc1cc2cc(C(=O)N(Cc3ccc(C(F)(F)F)cn3)Cc3ncccc3F)c(F)cc2nc1N [Example 310, 2-amino-7-fluoro-N-((3-fluoro-2-pyridinyl)methyl)-3-methyl-N-((5-(trifluoromethyl)-2-pyridinyl)methyl)-6-quinolinecarboxamide] | 
9 | 2840 | 0.21 | 163 | Cc1cc2cc(C(=O)N(Cc3ccc(C(F)(F)F)cn3)CC3CC3)c(F)cc2nc1N [Example 311, 2-amino-N-(cyclopropylmethyl)-7-fluoro-3-methyl-N-((5-(trifluoromethyl)-2-pyridinyl)methyl)-6-quinolinecarboxamide] | 
10 | > 10000 | 0.36 | 806 | Cc1cc2cc(C(=O)N(Cc3ccc(C(F)(F)F)cn3)Cc3ncccc3F)ncc2nc1N [Example 312, 2-amino-N-((3-fluoro-2-pyridinyl)methyl)-3-methyl-N-((5-(trifluoromethyl)-2-pyridinyl)methyl)-1,7-naphthyridine-6-carboxamide] | 
11 | 4340 | 0.25 | 181 | Cc1cc2cc(C(=O)N(Cc3ccc(C(F)(F)F)cn3)Cc3cnccn3)c(F)cc2nc1N [Example 315, 2-amino-7-fluoro-3-methyl-N-(2-pyrazinylmethyl)-N-((5-(trifluoromethyl)-2-pyridinyl)methyl)-6-quinolinecarboxamide] | 
12 | 10400 | 1.03 | 534 | Cc1cc(CN(Cc2ccc(C(F)(F)F)cn2)C(=O)c2cc3cc(C)c(N)nc3cc2F)no1 [Example 316, 2-amino-7-fluoro-3-methyl-N-((5-methyl-1,2-oxazol-3-yl)methyl)-N-((5-(trifluoromethyl)-2-pyridinyl)methyl)-6-quinolinecarboxamide] | 
13 | > 10000 | 0.56 | 612 | Nc1nc2ccc(C(=O)N(Cc3ccc(C(F)(F)F)cn3)Cc3ncccn3)cc2cc1Br [Example 317, 2-amino-3-bromo-N-(2-pyrimidinylmethyl)-N-((5-(trifluoromethyl)-2-pyridinyl)methyl)-6-quinolinecarboxamide] | 
14 | > 10000 | 1.91 | 952 | CC(C)CN(Cc1ccc(C(F)(F)F)cn1)C(=O)c1ccc2nc(N)c(Br)cc2c1 [Example 318, 2-amino-3-bromo-N-(2-methylpropyl)-N-((5-(trifluoromethyl)-2-pyridinyl)methyl)-6-quinolinecarboxamide] | 
15 | > 10000 | 0.15 | 288 | Nc1nc2ncc(C(=O)N(Cc3ccc(C(F)(F)F)cn3)Cc3ncccc3F)cc2cc1Br [Example 321, 7-amino-6-bromo-N-((3-fluoro-2-pyridinyl)methyl)-N-((5-(trifluoromethyl)-2-pyridinyl)methyl)-1,8-naphthyridine-3-carboxamide] | 
16 | > 10000 | 1.09 | 385 | Cc1cc2cc(C(=O)N(Cc3ccc(C(F)(F)F)nc3)Cc3ncccc3F)ccc2nc1N [Example 322, 2-amino-N-((3-fluoro-2-pyridinyl)methyl)-3-methyl-N-((6-(trifluoromethyl)-3-pyridinyl)methyl)-6-quinolinecarboxamide] | 
17 | 5010 | 0.36 | 159 | Cc1cc2cc(C(=O)N(Cc3ccc(C(F)(F)F)cn3)[C@@H]3CCCc4ccncc43)ccc2nc1N [Example 323, 2-amino-3-methyl-N-((8R)-5,6,7,8-tetrahydro-8-isoquinolinyl)-N-((5-(trifluoromethyl)-2-pyridinyl)methyl)-6-quinolinecarboxamide] | 
18 | > 10000 | 2 | 849 | Cc1cc2cc(C(=O)N(Cc3ccc(C(F)F)cn3)CC(C)C)ccc2nc1N [Example 324, 2-amino-N-((5-(difluoromethyl)-2-pyridinyl)methyl)-3-methyl-N-(2-methylpropyl)-6-quinolinecarboxamide] | 
19 | 6180 | 2.76 | 679 | Cc1cc2cc(C(=O)N(Cc3ccc(C(F)(F)F)cn3)CC3CC3)ccc2nc1N [Example 325, 2-amino-N-(cyclopropylmethyl)-3-methyl-N-((5-(trifluoromethyl)-2-pyridinyl)methyl)-6-quinolinecarboxamide] | 
20 | 4320 | 0.16 | 125 | Cc1cc2cc(C(=O)N(Cc3ccc(C(F)F)cn3)Cc3ncccc3F)ccc2nc1N [Example 326, 2-amino-N-((5-(difluoromethyl)-2-pyridinyl)methyl)-N-((3-fluoro-2-pyridinyl)methyl)-3-methyl-6-quinolinecarboxamide] | 
21 | 8640 | 0.35 | 304 | Cc1cc2cc(C(=O)N(Cc3ccc(C#N)cn3)Cc3ncccc3F)ccc2nc1N [Example 327, 2-amino-N-((5-cyano-2-pyridinyl)methyl)-N-((3-fluoro-2-pyridinyl)methyl)-3-methyl-6-quinolinecarboxamide] | 
22 | 4640 | 0.41 | 178 | Cc1cc2cc(C(=O)N(Cc3ccc(C(F)(F)F)cc3)Cc3ncccc3F)ccc2nc1N [Example 328, 2-amino-N-((3-fluoro-2-pyridinyl)methyl)-3-methyl-N-(4-(trifluoromethyl)benzyl)-6-quinolinecarboxamide] | 
23 | 3900 | 0.13 | 128 | Cc1cc(C(F)(F)F)ccc1CN(Cc1ncccc1F)C(=O)c1ccc2nc(N)c(C)cc2c1 [Example 329, 2-amino-N-((3-fluoro-2-pyridinyl)methyl)-3-methyl-N-(2-methyl-4-(trifluoromethyl)benzyl)-6-quinolinecarboxamide] | 
24 | 8570 | 1.87 | 628 | Cc1cc2cc(C(=O)N(Cc3ccc(Cl)cn3)CC(C)C)ccc2nc1N [Example 330, 2-amino-N-((5-chloro-2-pyridinyl)methyl)-3-methyl-N-(2-methylpropyl)-6-quinolinecarboxamide] | 

Row | SMILES | IC50 (HCT116 WT cells) [nM] | Ki (PRMT5/MEP50) [nM] | IC50 (HCT116 MTAP null cells; HCT116-MTAP null) [nM] | IC50 (HCT116 MTAP null cells) [nM]
25 | Cc1cc2cc(C(=O)N(Cc3ccc(C(F)(F)F)cn3)CC(C)C)ncc2nc1N [Example 313, 2-amino-3-methyl-N-(2-methylpropyl)-N-((5-(trifluoromethyl)-2-pyridinyl)methyl)-1,7-naphthyridine-6-carboxamide] | > 10000 | 0.98 |  | 902
26 | Cc1cc2cc(C(=O)N(Cc3ccc(C(F)(F)F)cn3)CC(C)C)c(F)cc2nc1N [Example 314, 2-amino-7-fluoro-3-methyl-N-(2-methylpropyl)-N-((5-(trifluoromethyl)-2-pyridinyl)methyl)-6-quinolinecarboxamide] | 5130 | 0.35 |  | 218
27 | Cc1cc2cc(C(=O)N(Cc3ccc(C(F)(F)F)cn3)Cc3ncccc3F)ccc2nc1N [Example 320, 2-amino-N-((3-fluoro-2-pyridinyl)methyl)-3-methyl-N-((5-(trifluoromethyl)-2-pyridinyl)methyl)-6-quinolinecarboxamide] | 3480 | 0.28 |  | 79
